Here are results for 15 molecules from patent US5455348A, “2-pyrrolidinones, pharmaceutical compositions containing these compounds and processes for preparing them” (Thomae; Karl, priority 1991, dated 1995).

Where a name gives a salt, the structure may show the parent alone. Read-outs that look alike come from different tables or passages of the source.

In data set [1] the target is fibrinogen binding to human thrombocytes. Put plainly: Fibrinogen binding to human thrombocytes. Particulars: gel-filtered human platelets, 125I fibrinogen, ADP, 20 minutes, ambient temperature; read-out: Fibrinogen-binding test IC50.
Method: The blood obtained by puncturing an antecubital vein is anticoagulated with trisodium citrate (final concentration: 13 mM) and centrifuged for 10 minutes at 170×g. The supernatant platelet-rich plasma is poured onto a Sepharose 2B column (Pharmacia) and eluted with a solution of 90 mM common salt, 14 mM trisodium citrate, 5 mM glucose and 50 mM Tris(hydroxymethyl)aminomethane, adjusted to pH 7.4. The gel-filtered platelets (GFP) appearing before the plasma proteins are used for the binding experiments.
50 μl of a 60 mM calcium chloride solution, 50 μl of a 0.6 mM adenosine diphosphate solution, 100 μl of substance solution or solvent and 50 μl of fibrinogen solution (containing 3 μg of ^125 I fibrinogen) are added to 750 μl of GFP and incubated for 20 minutes at ambient temperature. The non-specific binding is determined in the presence of 3 mg/ml of cold fibrinogen.
900 μl of the incubated material are carefully pipetted onto 250 μl of silicon oil (AP 38: AR 20, 1:2 v/v, Wacker Chemie) in Eppendorf tubes and centrifuged for 2 minutes at 10,000×g. The aqueous supernatant and some of the oil are drawn off, the tips of the tubes are cut off together with the platelet pellet and the quantity of bound fibrinogen is determined in a gamma counter. The concentration of substance which brings about a 50% inhibition in fibrinogen binding is determined from a series of concentrations and is given as the IC50 value.
For data set [2], the system named is collagen-induced thrombocyte aggregation in platelet-rich plasma. Put plainly: Collagen-induced platelet aggregation in platelet-rich plasma (Born and Cross method). Type of data set: cell-based, healthy volunteers (human). Particulars: read-out: Inhibition of platelet aggregation EC50.
Method: The thrombocyte aggregation is measured using the Born and Cross method (J. Physiol. 170: 397 (1964)) in platelet-rich plasma taken from healthy volunteers. To inhibit coagulation the blood is mixed with 3.14% sodium citrate in a ratio by volume of 1:10.
Collagen-induced aggregation
The pattern of the decrease in optical density of the platelet suspension is photometrically measured and recorded after the addition of aggregation-triggering substance. The rate of aggregation is concluded from the angle of inclination of the density curve. The point on the curve where there is maximum light transmittance is used to calculate the optical density.
The amount of collagen used is as small as possible but sufficient to produce an irreversible reaction curve. Standard commercial collagen produced by Hormonchemie of Munich is used. Before the addition of the collagen the plasma is incubated for 10 minutes with the substance at 37° C.
From the measurements obtained an EC50 is determined graphically, indicating a 50% change in the optical density in terms of the inhibition of aggregation.
Data set [3] can be described thus: Tolerance after intravenous administration. Format: in vivo. Particulars: intravenous administration of 30 mg/kg to three mice.
In data set [4] the test system is collagen-induced thrombocyte aggregation. Put plainly: Inhibition of collagen-induced thrombocyte aggregation ex vivo after oral administration. The conditions noted are these: Rhesus monkeys, oral administration of 1 mg/kg. Type of data set: in vivo. As for the experimental part:
Moreover, the compound of Example 5, for example, inhibits the collagen-induced thrombocyte aggregation ex vivo in Rhesus monkeys for more than 8 hours after oral administration of 1 mg/kg.

The mark [5] stands for this setting: collagen-induced, human platelet-rich plasma, 10 minutes preincubation at 37° C.

The IC50 is the midpoint of a concentration-inhibition curve. The term EC50 denotes the midpoint of the concentration-response curve. As to `N=C(N)c1ccc(-c2ccc(OC[C@@H]3C[C@@H](CC(=O)O)C(=O)N3CCCc3ccccc3)nn2)cc1` [Example 4(11)], the IC50 in data set [1] was 32 nM. Moreover, in data set [2] (setting [5]), the EC50 was 100 nM.

As for `N=C(N)c1ccc(-c2ccc(OC[C@@H]3C[C@@H](CC(=O)O)CN3c3ncccn3)cc2)cc1` [Example 4(2), (3S,5S)-5-[(4'-amidino-4-biphenylyl)oxymethyl]-3-carboxymethyl-1-(2-pyrimidyl)-pyrrolidine×0.25 HCl×0.4 H2 O], the IC50 in data set [1] was determined as 200 nM. Moreover, the half-maximal effective concentration (EC50) in data set [2] (setting [5]) amounted to 540 nM.

In the case of `COC(=O)C[C@@H]1C[C@@H](COc2ccc(-c3ccc(C(=N)N)cc3)cc2)N(c2cccnc2)C1=O` [Example 6(3), (3S,5S)-5-[(4'-amidino-4-biphenylyl)oxymethyl]-3-[(methoxycarbonyl)methyl]-1-(3-pyridyl)-2-pyrrolidinone×1.2 HCl×1 H2 O], the IC50 in data set [1] was 13000 nM. Further, in data set [2] (setting [5]), the EC50 turned out to be 2500 nM.

`Cn1nc(-c2ccc(C(=N)N)cc2)cc(C(=O)NC[C@@H]2C[C@@H](CC(=O)O)C(=O)N2)c1=O` [Example 4(15), (3S,5S)-5-[[[6-(4-amidinophenyl)-2-methyl-3(2H)-pyridazinon-4-yl]carbonyl]aminomethyl]-3-carboxymethyl-2-pyrrolidinone]: the IC50 in data set [1] worked out at 590 nM. The EC50 in data set [2] (setting [5]) worked out at 3000 nM.

As to `O=C(O)C[C@@H]1C[C@@H](CCNC(=O)c2ccc(C3CCNCC3)cc2)N(CCCc2ccccc2)C1=O` [Example 12(6), (3S,5S)-3-carboxymethyl-1-(3-phenylpropyl)-5-[2-[[4-(4-piperidinyl)phenyl]carbonylamino]ethyl]-2-pyrrolidinone×0.75 H2 O], the IC50 in data set [1] worked out at 570 nM. Besides, in data set [2] (setting [5]), the 50% effective concentration (EC50) is 3800 nM.

Turning to `N=C(N)c1ccc(-c2ccc(NC[C@@H]3C[C@@H](CC(=O)O)C(=O)N3)nn2)cc1` [Example 4(13), (3S,5S)-5-[[6-(4-amidinophenyl)-3-pyridazinyl]aminomethyl]-3-carboxymethyl-2-pyrrolidinone], in data set [1], the IC50 came to 59 nM. For the same molecule, in data set [2] (setting [5]), the EC50 came out at 590 nM.

Take `N=C(N)c1ccc(NC(=O)c2cccn(C[C@@H]3C[C@@H](CC(=O)O)C(=O)N3CCCc3ccccc3)c2=O)cc1` [4(18)]: the IC50 in data set [1] stood at 55 nM. For the same molecule, the EC50 in data set [2] (Homo sapiens, Platelet) is 430 nM. For the same molecule, in data set [3], the animals died result is on record as “no animals died”.

Turning to `N=C(N)c1ccc2c(c1)CCN(C(=O)NCC[C@@H]1C[C@@H](CC(=O)O)C(=O)N1CCCc1ccccc1)CC2` [Example 4(8), (3S,5S)-5-[2-[(7-amidino-1H-2,3,4,5-tetrahydro-3-benzazepin-3-yl)carbonylamino]ethyl]-3-carboxymethyl-1-(3-phenylpropyl)-2-pyrrolidinone×2 H2 O], in data set [1], the IC50 came to 770 nM. Besides, the EC50 in data set [2] (setting [5]) was determined as 5500 nM.

In the case of `N=C(N)N1Cc2ccc(C(=O)NCC[C@@H]3C[C@@H](CC(=O)O)C(=O)N3CCCc3ccccc3)cc2C1` [Example 11, (3S,5S)-5-[2-[(2-amidino-5-isoindolinyl)carbonylamino]ethyl]-3-carboxymethyl-1-(3-phenylpropyl)-2-pyrrolidinone], the concentration for half-maximal inhibition (IC50) in data set [1] was 270 nM. The EC50 in data set [2] (setting [5]) was determined as 890 nM.

Regarding `N=C(N)c1ccc(-c2ccc(OC[C@@H]3C[C@@H](CC(=O)O)CN3C(=O)c3cccnc3)cc2)cc1` [Example 4(4), (3S,5S)-5-[(4'-amidino-4-biphenylyl)oxymethyl]-3-carboxymethyl-1-nicotinoyl-pyrrolidine], the IC50 in data set [1] is 140 nM. Moreover, in data set [2] (setting [5]), the EC50 was determined as 210 nM.

`N=C(N)c1ccc(-c2ccc(OC[C@@H]3C[C@@H](CC(=O)O)C(=O)N3)cc2)nc1` [Example 1, (3S,5S)-5-[[4-(5-amidino-2-pyridyl)phenyl]oxymethyl]-3-carboxymethyl-2-pyrrolidinone]: in data set [2] (setting [5]), the EC50 turned out to be 60 nM. Moreover, the animals died entry in data set [3] was “no animals died”.

As to `N=C(N)c1ccc(-c2ccc(OC[C@@H]3C[C@@H](CC(=O)O)C(=O)N3c3cccnc3)cc2)cc1` [Example 4(6), (3S,5S)-5-[(4'-amidino-4-biphenylyl)oxymethyl]-3-carboxymethyl-1-(3-pyridyl)-2-pyrrolidinone×1.2 H2 O], the IC50 in data set [1] is 31 nM. The EC50 in data set [2] (setting [5]) was found to be 160 nM.

With `COC(=O)C[C@@H]1C[C@@H](COc2ccc(-c3ccc(C(=N)NC(=O)OC)cn3)cc2)NC1=O` [Example 5, (3S,5S)-5-[[4-[5-(N-Methoxycarbonylamidino)-2-pyridyl]phenyl]oxymethyl]-3-[(methoxycarbonyl)methyl]-2-pyrrolidinone], the “inhibits the collagen-induced thrombocyte aggregation ex vivo for (duration)” value in data set [4] is listed as “more than 8 hours”.

On to `N=C(N)c1cnc(-c2ccc(OC[C@@H]3C[C@@H](CC(=O)O)C(=O)N3)cc2)s1` [Example 1(3), (3S,5S)-5-[[4-(5-amidino-2-thiazolyl)phenyl]oxymethyl]-3-carboxymethyl-2-pyrrolidinone×0.6 H2 O], for which, in data set [1], the concentration for half-maximal inhibition (IC50) is 42 nM. Also, the EC50 in data set [2] (setting [5]) was determined as 100 nM.

As for `Nc1nccc2cc(-c3ccc(OC[C@@H]4C[C@@H](CC(=O)O)C(=O)N4)cc3)ccc12` [Example 4(3), (3S,5S)-5-[[4-(1-amino-6-isoquinolinyl)phenyl]oxymethyl]-3-carboxymethyl-2-pyrrolidinone-hydrochloride], the IC50 in data set [1] came to 160 nM. The EC50 in data set [2] (setting [5]) came out at 38000 nM.
